Measurements published in patent publication EP4810052A2, “HCRHR2 SELECTIVE POLYPEPTIDES” (Gubra A/S, priority 2023, dated 2026).
Where two headings read alike, the source gives them in different places. Starred links: 1 amine or outer side, 2 acyl side, 3 side chain; linkers in the order of their positions; H or OH if unused. Non-standard residues stand in square brackets, D forms with d. Residues, ends and D or L forms follow the SMILES beside them. Groups on a side chain read outwards from the residue. *: point of attachment. C20 diacid = O=C(O)CCCCCCCCCCCCCCCCCCC(=O)*; γGlu = O=C(O)[C@H](CCC(=O)[*:2])N[*:1]; NMeI = CC[C@H](C)[C@H](NC)C(=O)O; Nle = CCCC[C@H](N)C(=O)O; AEEA = NCCOCCOCC(=O)O; Aib = CC(C)(N)C(=O)O

How the values were obtained:
hCRHR2 = target: T1, hCRHR2 (Homo sapiens, UniProt Q13324); assay: HTRF cAMP assay, determination of hCRHR2 potency (peptide libraries 5 conc., purified peptides 11 conc.); assay type: cell-based
T1 sequence (Q13324 1-411): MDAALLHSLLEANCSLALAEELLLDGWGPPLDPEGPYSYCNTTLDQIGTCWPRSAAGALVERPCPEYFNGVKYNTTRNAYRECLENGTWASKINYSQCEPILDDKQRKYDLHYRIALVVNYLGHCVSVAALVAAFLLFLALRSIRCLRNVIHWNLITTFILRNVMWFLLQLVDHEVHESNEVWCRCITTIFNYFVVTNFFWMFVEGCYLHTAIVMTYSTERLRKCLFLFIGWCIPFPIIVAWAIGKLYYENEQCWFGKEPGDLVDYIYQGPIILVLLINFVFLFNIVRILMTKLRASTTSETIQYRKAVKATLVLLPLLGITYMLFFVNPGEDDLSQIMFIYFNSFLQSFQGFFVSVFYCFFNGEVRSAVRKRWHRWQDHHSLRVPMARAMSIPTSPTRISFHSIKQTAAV
Outline: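 Read-out was HTRF competitive cAMP detection (d2-labelled cAMP, cryptate-labelled antibody) in suspended, freshly thawed CHO-K1 cells stably carrying human CRHR2.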

hCRHR1 = target: T2, hCRHR1 (Homo sapiens, UniProt P34998); assay: HTRF cAMP assay, determination of hCRHR1 potency (peptide libraries 5 conc., purified peptides 11 conc.); assay type: cell-based
T2 sequence (P34998 24-415): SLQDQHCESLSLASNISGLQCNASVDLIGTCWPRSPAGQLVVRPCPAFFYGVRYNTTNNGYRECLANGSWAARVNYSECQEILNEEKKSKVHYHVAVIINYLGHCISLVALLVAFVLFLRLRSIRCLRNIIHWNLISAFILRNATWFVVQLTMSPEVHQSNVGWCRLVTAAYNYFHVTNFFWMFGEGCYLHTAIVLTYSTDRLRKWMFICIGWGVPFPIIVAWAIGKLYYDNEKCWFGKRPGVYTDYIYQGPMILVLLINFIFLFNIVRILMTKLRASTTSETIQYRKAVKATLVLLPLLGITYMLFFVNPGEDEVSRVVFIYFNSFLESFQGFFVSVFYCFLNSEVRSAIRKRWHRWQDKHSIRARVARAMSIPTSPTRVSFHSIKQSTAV
Outline: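 Cellular cAMP was read by time-resolved FRET between d2-labelled cAMP and cryptate anti-cAMP antibody. The cells were freshly thawed suspension CHO-K1 cells stably expressing human CRHR1.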

[1] = Table 3, matched molecular pairs X^38 L vs Nle, peptide library of Example 4, read-out: hCRHR2 pEC50 (converted)
[2] = Table 3, matched molecular pairs X^38 L vs Nle, peptide library of Example 4, read-out: hCRHR1 pEC50 (converted)
[3] = library peptides, matched molecular pairs L vs Nle in position X^38, read-out: Potency hCRHR2 pEC50 (converted)
[4] = library peptides, matched molecular pairs L vs Nle in position X^38, read-out: Potency hCRHR1 pEC50 (converted)

Row | EC50 (hCRHR2; [1]) [nM] | EC50 (hCRHR1; [2]) [nM] | EC50 (hCRHR2; [3]) [nM] | EC50 (hCRHR1; [4]) [nM] | other results | Compound
1 | 0.501 | 63100 |  |  |  | CC[C@H](C)[C@H](N)C(=O)N[C@H](C(=O)N[C@@H](CC(C)C)C(=O)N[C@@H](CO)C(=O)N[C@@H](CC(C)C)C(=O)N[C@@H](CC(=O)O)C(=O)N[C@H](C(=O)N1CCC[C@H]1C(=O)N[C@H](C(=O)NCC(=O)N[C@@H](CC(C)C)C(=O)N[C@@H](CC(C)C)C(=O)N[C@@H](CCC(N)=O)C(=O)N[C@H](C(=O)N[C@@H](CC(C)C)C(=O)N[C@@H](CC(C)C)C(=O)N[C@@H](CCC(=O)O)C(=O)N[C@@H](CCC(N)=O)C(=O)N[C@@H](C)C(=O)N[C@@H](CCCNC(=N)N)C(=O)N[C@@H](C)C(=O)N[C@@H](CCC(N)=O)C(=O)N[C@@H](C)C(=O)N[C@@H](C)C(=O)N[C@@H](CCCNC(=N)N)C(=O)N[C@@H](CCC(=O)O)C(=O)N[C@@H](CCC(N)=O)C(=O)N[C@@H](C)C(=O)N[C@@H](CCCCNC(=O)COCCOCCNC(=O)COCCOCCNC(=O)CC[C@H](NC(=O)CC[C@H](NC(=O)CCCCCCCCCCCCCCCCCCC(=O)O)C(=O)O)C(=O)O)C(=O)N[C@H](C(=O)N[C@@H](CC(N)=O)C(=O)N[C@@H](C)C(=O)N[C@@H](CCC(=O)O)C(=O)N[C@H](C(=O)N[C@@H](CC(C)C)C(=O)N[C@@H](C)C(=O)N[C@@H](CCC(=O)O)C(=O)N[C@H](C(N)=O)[C@@H](C)CC)[C@@H](C)CC)[C@@H](C)O)[C@@H](C)CC)[C@@H](C)CC)C(C)C)C(C)C [SEQ ID NO: 43] (H-IVLSLDVPIGLLQILLEQARAQAAREQAK([AEEA-AEEA-γGlu-γGlu-C20 diacid])TNAEILAEI-NH2)
2 | 0.398 | 63100 |  |  |  | CCCC[C@H](NC(=O)[C@@H](NC(=O)[C@H](CCC(=O)O)NC(=O)[C@H](C)NC(=O)[C@H](CC(N)=O)NC(=O)[C@@H](NC(=O)[C@H](CCCCNC(=O)COCCOCCNC(=O)COCCOCCNC(=O)CC[C@H](NC(=O)CC[C@H](NC(=O)CCCCCCCCCCCCCCCCCCC(=O)O)C(=O)O)C(=O)O)NC(=O)[C@H](C)NC(=O)[C@H](CCC(=O)O)NC(=O)[C@H](CCC(N)=O)NC(=O)[C@H](CCCNC(=N)N)NC(=O)[C@H](CC(C)C)NC(=O)[C@H](C)NC(=O)[C@H](CCCNC(=N)N)NC(=O)[C@H](C)NC(=O)[C@H](CCCNC(=N)N)NC(=O)[C@H](C)NC(=O)[C@H](CCC(N)=O)NC(=O)[C@H](CCC(=O)O)NC(=O)[C@H](CC(C)C)NC(=O)[C@H](CC(C)C)NC(=O)[C@@H](NC(=O)[C@H](CCC(N)=O)NC(=O)[C@H](CC(C)C)NC(=O)[C@H](CC(C)C)NC(=O)CNC(=O)[C@@H](NC(=O)[C@@H]1CCCN1C(=O)[C@@H](NC(=O)[C@H](CC(=O)O)NC(=O)[C@H](CC(C)C)NC(=O)[C@H](CO)NC(=O)[C@H](CC(C)C)NC(=O)[C@@H](NC(=O)[C@@H](N)[C@@H](C)CC)C(C)C)C(C)C)[C@@H](C)CC)[C@@H](C)CC)[C@@H](C)O)[C@@H](C)CC)C(=O)N[C@@H](C)C(=O)N[C@@H](CCC(=O)O)C(=O)N[C@H](C(N)=O)C(C)C [SEQ ID NO: 38] (H-IVLSLDVPIGLLQILLEQARARALRQEAK([AEEA-AEEA-γGlu-γGlu-C20 diacid])TNAEI[Nle]AEV-NH2)
3 |  |  |  |  | EC50 (hCRHR2; Table 4, library peptides having X^38 = Nle, read-out: hCRHR2 pEC50 (converted)): 0.0501 nM; EC50 (hCRHR1; Table 4, library peptides having X^38 = Nle, read-out: hCRHR1 pEC50 (converted)): 31600 nM | CCCC[C@H](NC(=O)[C@@H](NC(=O)[C@H](CCC(=O)O)NC(=O)C(C)(C)NC(=O)[C@H](CC(N)=O)NC(=O)[C@@H](NC(=O)[C@H](CCCCNC(=O)COCCOCCNC(=O)COCCOCCNC(=O)CC[C@H](NC(=O)CC[C@H](NC(=O)CCCCCCCCCCCCCCCCCCC(=O)O)C(=O)O)C(=O)O)NC(=O)[C@H](C)NC(=O)[C@H](CCC(N)=O)NC(=O)[C@H](CCC(=O)O)NC(=O)[C@H](CCCNC(=N)N)NC(=O)[C@H](C)NC(=O)[C@H](C)NC(=O)[C@H](CCCNC(=N)N)NC(=O)[C@H](C)NC(=O)[C@H](CCCNC(=N)N)NC(=O)[C@H](C)NC(=O)[C@H](CCC(N)=O)NC(=O)[C@H](CCCCN)NC(=O)[C@H](CC(C)C)NC(=O)[C@H](CC(C)C)NC(=O)[C@@H](NC(=O)[C@H](CCC(N)=O)NC(=O)[C@H](CC(C)C)NC(=O)[C@H](CC(C)C)NC(=O)CNC(=O)[C@@H](NC(=O)[C@@H]1CCCN1C(=O)[C@@H](NC(=O)[C@H](CC(=O)O)NC(=O)[C@H](CC(C)C)NC(=O)[C@H](CO)NC(=O)[C@H](CC(C)C)NC(=O)[C@@H](NC(=O)[C@@H](NC)[C@@H](C)CC)C(C)C)C(C)C)[C@@H](C)CC)[C@@H](C)CC)[C@@H](C)O)[C@@H](C)CC)C(=O)N[C@@H](C)C(=O)N[C@@H](CCC(=O)O)C(=O)N[C@H](C(N)=O)C(C)C [compound 230] (H-[NMeI]VLSLDVPIGLLQILLKQARARAAREQAK([AEEA-AEEA-γGlu-γGlu-C20 diacid])TN[Aib]EI[Nle]AEV-NH2)
4 |  |  | 0.631 | 39800 |  | CC[C@H](C)[C@H](N)C(=O)N[C@H](C(=O)N[C@@H](CC(C)C)C(=O)N[C@@H](CO)C(=O)N[C@@H](CC(C)C)C(=O)N[C@@H](CC(=O)O)C(=O)N[C@H](C(=O)N1CCC[C@H]1C(=O)N[C@H](C(=O)NCC(=O)N[C@@H](CC(C)C)C(=O)N[C@@H](CC(C)C)C(=O)N[C@@H](CCC(N)=O)C(=O)N[C@H](C(=O)N[C@@H](CC(C)C)C(=O)N[C@@H](CC(C)C)C(=O)N[C@@H](CO)C(=O)N[C@@H](CCC(N)=O)C(=O)N[C@@H](C)C(=O)N[C@@H](CCCNC(=N)N)C(=O)N[C@@H](C)C(=O)N[C@@H](CCCNC(=N)N)C(=O)N[C@@H](C)C(=O)N[C@@H](C)C(=O)N[C@@H](CCCNC(=N)N)C(=O)N[C@@H](CCC(=O)O)C(=O)N[C@@H](CCC(N)=O)C(=O)N[C@@H](C)C(=O)N[C@@H](CCCCNC(=O)COCCOCCNC(=O)COCCOCCNC(=O)CC[C@H](NC(=O)CC[C@H](NC(=O)CCCCCCCCCCCCCCCCCCC(=O)O)C(=O)O)C(=O)O)C(=O)N[C@H](C(=O)N[C@@H](CC(N)=O)C(=O)N[C@@H](C)C(=O)N[C@@H](CCC(=O)O)C(=O)N[C@H](C(=O)N[C@@H](CC(C)C)C(=O)N[C@@H](C)C(=O)N[C@@H](CCC(=O)O)C(=O)N[C@H](C(N)=O)[C@@H](C)CC)[C@@H](C)CC)[C@@H](C)O)[C@@H](C)CC)[C@@H](C)CC)C(C)C)C(C)C [compound 88] (H-IVLSLDVPIGLLQILLSQARARAAREQAK([AEEA-AEEA-γGlu-γGlu-C20 diacid])TNAEILAEI-NH2)
5 |  |  | 0.316 | 251 |  | CCCC[C@H](NC(=O)[C@@H](NC(=O)[C@H](CCC(=O)O)NC(=O)[C@H](C)NC(=O)[C@H](CC(N)=O)NC(=O)[C@@H](NC(=O)[C@H](CCCCNC(=O)COCCOCCNC(=O)COCCOCCNC(=O)CC[C@H](NC(=O)CC[C@H](NC(=O)CCCCCCCCCCCCCCCCCCC(=O)O)C(=O)O)C(=O)O)NC(=O)[C@H](C)NC(=O)[C@H](CCC(N)=O)NC(=O)[C@H](CCC(=O)O)NC(=O)[C@H](CCCNC(=N)N)NC(=O)[C@H](C)NC(=O)[C@H](CCC(N)=O)NC(=O)[C@H](CCCNC(=N)N)NC(=O)[C@H](C)NC(=O)[C@H](CCCNC(=N)N)NC(=O)[C@H](C)NC(=O)[C@H](CCC(N)=O)NC(=O)[C@H](CCC(=O)O)NC(=O)[C@H](CC(C)C)NC(=O)[C@H](CC(C)C)NC(=O)[C@@H](NC(=O)[C@H](CCC(N)=O)NC(=O)[C@H](CC(C)C)NC(=O)[C@H](CC(C)C)NC(=O)CNC(=O)[C@@H](NC(=O)[C@@H]1CCCN1C(=O)[C@@H](NC(=O)[C@H](CC(=O)O)NC(=O)[C@H](CC(C)C)NC(=O)[C@H](CO)NC(=O)[C@H](CC(C)C)NC(=O)[C@@H](NC(=O)[C@@H](N)[C@@H](C)CC)C(C)C)C(C)C)[C@@H](C)CC)[C@@H](C)CC)[C@@H](C)O)[C@@H](C)CC)C(=O)N[C@@H](C)C(=O)N[C@@H](CCC(=O)O)C(=O)N[C@H](C(N)=O)C(C)C [compound 53] (H-IVLSLDVPIGLLQILLEQARARQAREQAK([AEEA-AEEA-γGlu-γGlu-C20 diacid])TNAEI[Nle]AEV-NH2)
